Results from ChEMBL document CHEMBL4346729, “The discovery of novel 3-aryl-indazole derivatives as peripherally restricted pan-Trk inhibitors for the treatment of pain” (Bioorg Med Chem Lett, 2019).

Columns and labels:
[1] = Ratio of drug level in brain to plasma of Sprague-Dawley rat at 2.5 mg/kg, ip; format: ADME, organism-based; conditions: read-out: BPR
[2] = target: Tyrosine-protein kinase ABL1 (Homo sapiens) (UniProt P00519); assay: Inhibition of recombinant human N-terminal GST/His6-tagged ABL1 wt internal (P118 to S535) expressed in Sf9 insect cells at 20 nM using phosphatidylserine as substrate incubated for 60 mins in presence of [33P]-ATP by scintillation counting method
[3] = Half life in Sprague-Dawley rat at 1 mg/kg, iv; format: ADME, organism-based; conditions: in vivo
[4] = target: Serine/threonine-protein kinase 3 (Homo sapiens) (UniProt Q13188); assay: Inhibition of recombinant human full length MST2 (M1 to F491) expressed in Sf9 insect cells at 20 nM using phosphatidylserine as substrate incubated for 60 mins in presence of [33P]-ATP by scintillation counting method
[5] = target: Serine/threonine-protein kinase Chk2 (Homo sapiens) (UniProt O96017); assay: Inhibition of CHK2 (unknown origin) at 20 nM using phosphatidylserine as substrate incubated for 60 mins in presence of [33P]-ATP by scintillation counting method
[6] = Unbound drug level in brain of CFA induced Sprague-Dawley rat at 4 mg/kg, po after 1 hr; format: ADME, organism-based; conditions: in vivo, BLD = below limit of detection
[7] = target: Serine/threonine-protein kinase PAK 2 (Homo sapiens) (UniProt Q13177); assay: Inhibition of recombinant human N-terminal GST/His6-tagged PAK2 (D3 to R524) expressed in Sf9 insect cells at 20 nM using phosphatidylserine as substrate incubated for 60 mins in presence of [33P]-ATP by scintillation counting method
[8] = target: Casein kinase I isoform delta (Homo sapiens) (UniProt P48730); assay: Inhibition of CK1-delta (unknown origin) at 20 nM using phosphatidylserine as substrate incubated for 60 mins in presence of [33P]-ATP by scintillation counting method
[9] = tested on: Rattus norvegicus; assay: Unbound drug level in plasma of CFA induced Sprague-Dawley rat at 20 mg/kg, po after 1 hr; format: ADME, organism-based; conditions: in vivo
[10] = Protein binding in Sprague-Dawley rat brain; format: ADME, tissue-based; conditions: read-out: PB (converted)
[11] = target: Protein kinase C beta type (Homo sapiens) (UniProt P05771); assay: Inhibition of recombinant human full length N-terminal GST/His6-tagged PKC-beta2 (M1 to S673) expressed in Sf9 insect cells at 20 nM using phosphatidylserine as substrate incubated for 60 mins in presence of [33P]-ATP by scintillation counting method
[12] = target: Serine/threonine-protein kinase pim-2 (Homo sapiens) (UniProt Q9P1W9); assay: Inhibition of recombinant human full length N-terminal GST/His6-tagged PIM2 (M1 to P311) expressed in baculovirus infected Sf9 insect cells at 20 nM using phosphatidylserine as substrate incubated for 60 mins in presence of [33P]-ATP by scintillation counting method
[13] = Unbound drug level in brain of CFA induced Sprague-Dawley rat at 100 mg/kg, po after 1 hr; format: ADME, organism-based; conditions: in vivo
[14] = target: Aurora kinase A (Homo sapiens) (UniProt O14965); assay: Inhibition of recombinant human full length N-terminal GST/His6-tagged Aurora-A (M1 to S403) expressed in Sf9 insect cells at 20 nM using phosphatidylserine as substrate incubated for 60 mins in presence of [33P]-ATP by scintillation counting method
[15] = target: Mitogen-activated protein kinase kinase kinase kinase 4 (Homo sapiens) (UniProt O95819); assay: Inhibition of recombinant human N-terminal GST/His6-tagged MAP4K4 (A7 to W1320) expressed in Sf9 insect cells at 20 nM using phosphatidylserine as substrate incubated for 60 mins in presence of [33P]-ATP by scintillation counting method
[16] = target: Casein kinase II subunit alpha (Homo sapiens) (UniProt P68400); assay: Inhibition of recombinant human full length N-terminal GST and C-terminal His6-tagged CK2-alpha (M1 to Q391) expressed in Sf9 insect cells at 20 nM using phosphatidylserine as substrate incubated for 60 mins in presence of [33P]-ATP by scintillation counting method
[17] = Protein binding in Sprague-Dawley rat plasma; format: ADME, cell-free; conditions: read-out: PPB (converted)
[18] = target: Proto-oncogene tyrosine-protein kinase Src (Homo sapiens) (UniProt P12931); assay: Inhibition of recombinant human full length N-terminal GST and C-terminal His6-tagged SRC (M1 to L536) expressed in Sf9 insect cells at 20 nM using phosphatidylserine as substrate incubated for 60 mins in presence of [33P]-ATP by scintillation counting method
[19] = target: MAP kinase-activated protein kinase 5 (Homo sapiens) (UniProt Q8IW41); assay: Inhibition of recombinant human full length MAPKAPK5 (M1 to Q471) expressed in Escherichia coli at 20 nM using phosphatidylserine as substrate incubated for 60 mins in presence of [33P]-ATP by scintillation counting method
[20] = target: Ribosomal protein S6 kinase alpha-5 (Homo sapiens) (UniProt O75582); assay: Inhibition of RPS6KA5 (unknown origin) at 20 nM using phosphatidylserine as substrate incubated for 60 mins in presence of [33P]-ATP by scintillation counting method
[21] = target: Serine/threonine-protein kinase MARK1 (Homo sapiens) (UniProt Q9P0L2); assay: Inhibition of recombinant human full length N-terminal GST/His6-tagged MARK1 (M1 to L780) expressed in Sf9 insect cells at 20 nM using phosphatidylserine as substrate incubated for 60 mins in presence of [33P]-ATP by scintillation counting method
[22] = target: BDNF/NT-3 growth factors receptor (Homo sapiens, UniProt Q16620); assay: Inhibition of human GST-tagged TRKB (456 to 822) expressed in baculovirus expression system using TK-biotin peptide as substrate incubated for 45 min by TR-FRET assay
[23] = target: Glycogen synthase kinase-3 beta (Homo sapiens) (UniProt P49841); assay: Inhibition of recombinant human full length N-terminal GST/His6-tagged GSK3-beta (M1 to T420) expressed in Sf9 insect cells at 20 nM using phosphatidylserine as substrate incubated for 60 mins in presence of [33P]-ATP by scintillation counting method
[24] = target: Dual specificity tyrosine-phosphorylation-regulated kinase 1A (Homo sapiens) (UniProt Q13627); assay: Inhibition of DYRK1A (unknown origin) at 20 nM using phosphatidylserine as substrate incubated for 60 mins in presence of [33P]-ATP by scintillation counting method
[25] = target: Tyrosine-protein kinase JAK1 (Homo sapiens) (UniProt P23458); assay: Inhibition of recombinant human N-terminal GST/His6-tagged JAK1 wt (L583 to K1154) expressed in Sf9 insect cells at 20 nM using phosphatidylserine as substrate incubated for 60 mins in presence of [33P]-ATP by scintillation counting method
[26] = Unbound drug level in brain of CFA induced Sprague-Dawley rat at 0.8 mg/kg, po after 1 hr; format: ADME, organism-based; conditions: in vivo, BLD = below limit of detection
[27] = Toxicity in CFA induced Sprague-Dawley rat assessed as increase in weight gain at 100 mg/kg, po and measured up to 3 days; format: organism-based; conditions: in vivo, 72 h

Sequence of Casein kinase II subunit alpha (Homo sapiens) (P68400 whole entry, looked up): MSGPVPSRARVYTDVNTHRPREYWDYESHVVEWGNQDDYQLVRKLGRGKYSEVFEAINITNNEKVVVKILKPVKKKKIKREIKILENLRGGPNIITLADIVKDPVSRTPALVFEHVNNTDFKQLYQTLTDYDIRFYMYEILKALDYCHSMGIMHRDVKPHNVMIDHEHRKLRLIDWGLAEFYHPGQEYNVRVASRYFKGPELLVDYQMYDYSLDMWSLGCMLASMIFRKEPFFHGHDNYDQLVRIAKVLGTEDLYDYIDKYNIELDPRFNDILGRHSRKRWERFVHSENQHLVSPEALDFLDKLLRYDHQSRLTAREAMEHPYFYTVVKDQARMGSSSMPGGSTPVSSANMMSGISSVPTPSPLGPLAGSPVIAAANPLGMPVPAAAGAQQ
Sequence of Serine/threonine-protein kinase MARK1 (Homo sapiens) (Q9P0L2 whole entry, looked up): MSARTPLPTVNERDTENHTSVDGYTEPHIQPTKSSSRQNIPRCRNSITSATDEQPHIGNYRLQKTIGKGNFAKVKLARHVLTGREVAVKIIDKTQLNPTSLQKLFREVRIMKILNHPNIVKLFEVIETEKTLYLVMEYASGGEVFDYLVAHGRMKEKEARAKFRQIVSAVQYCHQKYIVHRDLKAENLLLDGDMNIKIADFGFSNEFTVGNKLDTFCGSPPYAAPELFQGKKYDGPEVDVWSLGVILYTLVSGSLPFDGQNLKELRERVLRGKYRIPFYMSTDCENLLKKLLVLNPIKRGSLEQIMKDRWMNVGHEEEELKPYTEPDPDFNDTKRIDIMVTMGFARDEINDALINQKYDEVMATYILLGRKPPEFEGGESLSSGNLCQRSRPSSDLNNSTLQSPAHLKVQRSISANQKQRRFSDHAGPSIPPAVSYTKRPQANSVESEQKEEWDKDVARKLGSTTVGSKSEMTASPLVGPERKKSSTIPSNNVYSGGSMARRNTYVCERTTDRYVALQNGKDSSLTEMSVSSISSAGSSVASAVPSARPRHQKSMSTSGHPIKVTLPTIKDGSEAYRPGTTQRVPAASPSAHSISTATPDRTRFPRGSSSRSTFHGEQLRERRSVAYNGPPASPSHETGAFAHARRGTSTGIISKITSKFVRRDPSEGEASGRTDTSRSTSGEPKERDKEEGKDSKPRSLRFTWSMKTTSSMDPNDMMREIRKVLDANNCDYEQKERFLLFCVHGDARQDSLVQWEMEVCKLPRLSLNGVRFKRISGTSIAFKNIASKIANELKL
Sequence of Glycogen synthase kinase-3 beta (Homo sapiens) (P49841 whole entry, looked up): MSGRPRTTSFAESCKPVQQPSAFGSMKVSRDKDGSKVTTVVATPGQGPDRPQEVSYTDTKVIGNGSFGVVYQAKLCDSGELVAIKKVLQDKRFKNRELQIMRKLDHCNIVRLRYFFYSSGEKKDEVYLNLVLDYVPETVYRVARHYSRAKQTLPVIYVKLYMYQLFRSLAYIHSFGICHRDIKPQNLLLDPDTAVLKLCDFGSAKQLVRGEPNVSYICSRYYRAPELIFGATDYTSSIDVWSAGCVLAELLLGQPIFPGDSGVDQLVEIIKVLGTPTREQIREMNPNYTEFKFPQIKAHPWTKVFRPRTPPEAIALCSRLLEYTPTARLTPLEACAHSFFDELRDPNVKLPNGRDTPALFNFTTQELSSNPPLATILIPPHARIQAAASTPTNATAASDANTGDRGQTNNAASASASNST
Sequence of Aurora kinase A (Homo sapiens) (O14965 whole entry): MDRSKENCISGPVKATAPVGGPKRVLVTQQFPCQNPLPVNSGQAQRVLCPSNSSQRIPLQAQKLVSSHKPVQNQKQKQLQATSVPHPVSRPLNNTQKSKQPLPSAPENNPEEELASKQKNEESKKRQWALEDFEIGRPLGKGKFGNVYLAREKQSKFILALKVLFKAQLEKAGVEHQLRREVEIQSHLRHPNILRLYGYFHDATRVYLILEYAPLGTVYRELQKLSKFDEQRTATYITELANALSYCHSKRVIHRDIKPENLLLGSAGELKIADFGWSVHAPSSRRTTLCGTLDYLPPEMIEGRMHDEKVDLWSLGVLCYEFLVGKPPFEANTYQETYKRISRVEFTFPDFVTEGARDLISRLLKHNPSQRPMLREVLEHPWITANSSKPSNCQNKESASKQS
Sequence of Proto-oncogene tyrosine-protein kinase Src (Homo sapiens) (P12931 2-536 limits assumed): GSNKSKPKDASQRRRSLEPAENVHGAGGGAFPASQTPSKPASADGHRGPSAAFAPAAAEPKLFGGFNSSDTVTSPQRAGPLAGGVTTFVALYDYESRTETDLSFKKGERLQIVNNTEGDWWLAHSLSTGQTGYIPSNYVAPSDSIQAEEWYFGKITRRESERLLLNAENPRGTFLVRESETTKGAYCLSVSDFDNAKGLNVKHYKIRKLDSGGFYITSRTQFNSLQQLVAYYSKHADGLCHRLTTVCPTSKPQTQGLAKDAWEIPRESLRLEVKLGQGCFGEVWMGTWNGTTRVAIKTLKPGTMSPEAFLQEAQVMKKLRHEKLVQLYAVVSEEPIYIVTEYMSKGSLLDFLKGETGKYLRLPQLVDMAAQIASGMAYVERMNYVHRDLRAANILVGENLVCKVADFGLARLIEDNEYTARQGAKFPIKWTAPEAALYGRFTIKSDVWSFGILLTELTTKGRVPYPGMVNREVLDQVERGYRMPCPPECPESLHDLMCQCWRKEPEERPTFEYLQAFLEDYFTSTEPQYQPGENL
Sequence of Tyrosine-protein kinase ABL1 (Homo sapiens) (P00519 whole entry): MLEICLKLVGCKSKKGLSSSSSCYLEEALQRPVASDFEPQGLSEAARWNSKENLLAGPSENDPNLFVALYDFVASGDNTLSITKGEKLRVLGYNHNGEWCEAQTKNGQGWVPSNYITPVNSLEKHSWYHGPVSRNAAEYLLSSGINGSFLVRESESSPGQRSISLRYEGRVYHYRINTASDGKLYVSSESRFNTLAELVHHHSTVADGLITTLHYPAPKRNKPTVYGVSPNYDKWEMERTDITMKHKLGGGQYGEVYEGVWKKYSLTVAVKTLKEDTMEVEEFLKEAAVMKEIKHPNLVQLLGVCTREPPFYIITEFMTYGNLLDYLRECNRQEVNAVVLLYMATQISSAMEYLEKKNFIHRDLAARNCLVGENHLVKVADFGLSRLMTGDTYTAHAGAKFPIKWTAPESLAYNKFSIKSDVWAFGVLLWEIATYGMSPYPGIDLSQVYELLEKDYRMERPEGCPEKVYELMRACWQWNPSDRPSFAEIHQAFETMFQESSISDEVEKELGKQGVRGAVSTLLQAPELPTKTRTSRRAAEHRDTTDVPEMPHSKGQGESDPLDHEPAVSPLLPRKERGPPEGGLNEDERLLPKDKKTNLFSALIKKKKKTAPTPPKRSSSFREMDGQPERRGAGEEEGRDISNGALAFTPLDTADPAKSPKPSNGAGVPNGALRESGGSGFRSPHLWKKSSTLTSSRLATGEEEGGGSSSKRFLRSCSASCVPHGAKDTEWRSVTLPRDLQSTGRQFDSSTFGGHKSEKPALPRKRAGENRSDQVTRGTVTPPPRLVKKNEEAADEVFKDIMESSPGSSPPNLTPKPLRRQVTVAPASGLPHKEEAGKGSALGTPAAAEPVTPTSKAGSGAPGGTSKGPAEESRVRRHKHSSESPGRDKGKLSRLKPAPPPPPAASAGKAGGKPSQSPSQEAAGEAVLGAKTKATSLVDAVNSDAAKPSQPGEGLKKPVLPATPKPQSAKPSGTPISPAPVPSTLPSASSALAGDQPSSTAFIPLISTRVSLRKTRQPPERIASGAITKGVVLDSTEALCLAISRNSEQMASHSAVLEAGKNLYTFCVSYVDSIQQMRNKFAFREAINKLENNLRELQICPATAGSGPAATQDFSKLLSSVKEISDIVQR
Sequence of Tyrosine-protein kinase JAK1 (Homo sapiens) (P23458 whole entry): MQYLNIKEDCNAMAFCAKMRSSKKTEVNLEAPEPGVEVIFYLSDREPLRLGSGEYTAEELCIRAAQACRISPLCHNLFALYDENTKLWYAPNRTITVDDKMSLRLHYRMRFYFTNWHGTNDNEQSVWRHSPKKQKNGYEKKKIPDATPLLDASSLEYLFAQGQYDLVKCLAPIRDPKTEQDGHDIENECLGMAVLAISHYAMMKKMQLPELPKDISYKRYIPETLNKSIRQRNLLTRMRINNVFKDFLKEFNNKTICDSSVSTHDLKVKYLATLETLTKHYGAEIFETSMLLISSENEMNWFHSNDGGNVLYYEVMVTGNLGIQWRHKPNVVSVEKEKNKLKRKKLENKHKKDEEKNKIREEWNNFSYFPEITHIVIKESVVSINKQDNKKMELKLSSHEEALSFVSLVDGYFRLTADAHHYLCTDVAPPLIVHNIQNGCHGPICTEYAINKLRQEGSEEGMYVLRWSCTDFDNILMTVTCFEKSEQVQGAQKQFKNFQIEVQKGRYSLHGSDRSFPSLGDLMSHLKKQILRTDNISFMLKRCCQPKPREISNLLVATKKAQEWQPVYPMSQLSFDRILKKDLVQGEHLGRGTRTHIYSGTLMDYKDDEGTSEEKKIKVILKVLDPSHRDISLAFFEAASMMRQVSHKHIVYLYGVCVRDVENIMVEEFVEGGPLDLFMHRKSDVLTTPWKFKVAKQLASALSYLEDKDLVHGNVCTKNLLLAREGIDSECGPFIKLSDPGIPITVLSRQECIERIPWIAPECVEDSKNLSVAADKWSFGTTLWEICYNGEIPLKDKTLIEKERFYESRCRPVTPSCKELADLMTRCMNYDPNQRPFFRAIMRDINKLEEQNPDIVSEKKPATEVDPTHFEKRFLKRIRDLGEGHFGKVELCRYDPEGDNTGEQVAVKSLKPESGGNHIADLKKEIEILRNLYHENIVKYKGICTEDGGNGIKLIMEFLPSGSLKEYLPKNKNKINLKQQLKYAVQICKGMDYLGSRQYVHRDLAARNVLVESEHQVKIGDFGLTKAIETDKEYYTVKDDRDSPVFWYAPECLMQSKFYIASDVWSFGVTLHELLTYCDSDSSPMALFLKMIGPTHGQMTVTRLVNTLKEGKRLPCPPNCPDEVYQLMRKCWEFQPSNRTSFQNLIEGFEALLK

Compound `Cn1cc(-c2n[nH]c3ccc(NCc4cc(F)ccc4S(C)(=O)=O)cc23)cn1` has a Kp [1] of 0.03, an inhibition [2] of 1% and a half-life [3] of 87.6 min. For the same compound, the inhibition [4] was 3%, the inhibition [5] was -1% and the “Drug uptake(free)” value [6] was “Bld”. The inhibition [7] was 12%, the inhibition [8] was 5% and the “Cp(f)” value [9] was 70.9 nM. It also gave a fraction unbound [10] of 0.038, an inhibition [11] of 5% and an inhibition [12] of -1%. For the same compound, the “Drug uptake(free)” value [13] was 3.5 nM, the inhibition [14] was -7% and the inhibition [15] was 5%. For the same compound, the inhibition [16] was 7%, the fraction unbound [17] was 0.134 and the inhibition [18] was 2%. For the same compound, the inhibition [19] was 6%, the inhibition [20] was 5% and the inhibition [21] was -8%. For the same compound, the IC50 [22] was 0.2 nM, the inhibition [23] was 11% and the inhibition [24] was -7%. The inhibition [25] was -5%, the “Drug uptake(free)” value [26] was “Bld” and the Activity [27] was “Toxic”.
